Measured values as given in ChEMBL document CHEMBL5625252, “Synthesis of peptidomimetics as antibiotic adjuvants for combination with aztreonam to combat MDR Pseudomonas aeruginosa” (Eur J Med Chem, 2023).
≈ marks a conversion by molar mass, not a printed value.

Assays:
Format in all cases: functional
Pseudomonas aeruginosa [1] = assay: Synergistic antibacterial activity against Pseudomonas aeruginosa PAO1 assessed as aztreonam MIC upto […] ug/ml incubated for 18 hrs by checkerboard method (reference value: 8 microg/ml)
Pseudomonas aeruginosa [2] = assay: Antibacterial activity against Pseudomonas aeruginosa 13-35 assessed as inhibition of bacterial growth incubated for 18 hrs by agar dilution method
Pseudomonas aeruginosa [3] = assay: Antibacterial activity against Pseudomonas aeruginosa 23-Y122 assessed as inhibition of bacterial growth incubated for 18 hrs by agar dilution method
Pseudomonas aeruginosa [4] = assay: Antibacterial activity against Pseudomonas aeruginosa 23-Y372 assessed as inhibition of bacterial growth incubated for 18 hrs by agar dilution method
Pseudomonas aeruginosa [5] = assay: Antibacterial activity against Pseudomonas aeruginosa 21-8 assessed as inhibition of bacterial growth incubated for 18 hrs by agar dilution method
Pseudomonas aeruginosa [6] = assay: Antibacterial activity against Pseudomonas aeruginosa 19-46 assessed as inhibition of bacterial growth incubated for 18 hrs by agar dilution method
Pseudomonas aeruginosa [7] = assay: Antibacterial activity against Pseudomonas aeruginosa 13-3 assessed as inhibition of bacterial growth incubated for 18 hrs by agar dilution method
Pseudomonas aeruginosa [8] = assay: Antibacterial activity against Pseudomonas aeruginosa 13-17 assessed as inhibition of bacterial growth incubated for 18 hrs by agar dilution method
Pseudomonas aeruginosa [9] = assay: Antibacterial activity against Pseudomonas aeruginosa 21-2 assessed as inhibition of bacterial growth incubated for 18 hrs by agar dilution method
Pseudomonas aeruginosa [10] = assay: Antibacterial activity against Pseudomonas aeruginosa 23-Y364 assessed as inhibition of bacterial growth incubated for 18 hrs by agar dilution method
Pseudomonas aeruginosa [11] = assay: Antibacterial activity against Pseudomonas aeruginosa 19-55 assessed as inhibition of bacterial growth incubated for 18 hrs by agar dilution method
Pseudomonas aeruginosa [12] = assay: Antibacterial activity against Pseudomonas aeruginosa 16-2 assessed as inhibition of bacterial growth incubated for 18 hrs by agar dilution method
Pseudomonas aeruginosa [13] = assay: Antibacterial activity against Pseudomonas aeruginosa PAO1 assessed as inhibition of bacterial growth incubated for 18 hrs by agar dilution method
Pseudomonas aeruginosa [14] = assay: Antibacterial activity against Pseudomonas aeruginosa 23-Y539 assessed as inhibition of bacterial growth incubated for 18 hrs by agar dilution method
Pseudomonas aeruginosa [15] = assay: Antibacterial activity against Pseudomonas aeruginosa 23-Y417 assessed as inhibition of bacterial growth incubated for 18 hrs by agar dilution method; conditions: read-out: MIC
Pseudomonas aeruginosa [16] = assay: Antibacterial activity against Pseudomonas aeruginosa 12-1 assessed as inhibition of bacterial growth incubated for 18 hrs by agar dilution method
Pseudomonas aeruginosa [17] = assay: Antibacterial activity against Pseudomonas aeruginosa 23-Y511 assessed as inhibition of bacterial growth incubated for 18 hrs by agar dilution method
Pseudomonas aeruginosa [18] = assay: Antibacterial activity against Pseudomonas aeruginosa 16-11 assessed as inhibition of bacterial growth incubated for 18 hrs by agar dilution method
Pseudomonas aeruginosa [19] = assay: Antibacterial activity against Pseudomonas aeruginosa 21-7 assessed as inhibition of bacterial growth incubated for 18 hrs by agar dilution method
Escherichia coli [20] = assay: Antibacterial activity against ESBLs (+) Escherichia coli 16-1 assessed as inhibition of bacterial growth incubated for 18 hrs by agar dilution method
Escherichia coli [21] = assay: Antibacterial activity against ESBLs (-) Escherichia coli ATCC 25922 assessed as inhibition of bacterial growth incubated for 18 hrs by agar dilution method
Klebsiella pneumoniae [22] = assay: Antibacterial activity against ESBLs (+) Klebsiella pneumoniae 16-14 assessed as inhibition of bacterial growth incubated for 18 hrs by agar dilution method
Escherichia coli [23] = assay: Antibacterial activity against mcr-1 (+) Escherichia coli 08-85 assessed as inhibition of bacterial growth incubated for 18 hrs by agar dilution method
Escherichia coli [24] = assay: Antibacterial activity against NDM-1 (+) Escherichia coli CDC 1001728 assessed as inhibition of bacterial growth incubated for 18 hrs by agar dilution method
Klebsiella pneumoniae [25] = assay: Antibacterial activity against NDM-1 (+) Klebsiella pneumoniae 09-20 assessed as inhibition of bacterial growth incubated for 18 hrs by agar dilution method
Pseudomonas aeruginosa [26] = assay: Antibacterial activity against BL (+) Pseudomonas aeruginosa ATCC 27853 assessed as inhibition of bacterial growth incubated for 18 hrs by agar dilution method
Klebsiella pneumoniae [27] = assay: Antibacterial activity against ESBLs (+) Klebsiella pneumoniae ATCC 700603 assessed as inhibition of bacterial growth incubated for 18 hrs by agar dilution method
Klebsiella pneumoniae [28] = assay: Antibacterial activity against NDM-1 (+) Klebsiella pneumoniae 2146 assessed as inhibition of bacterial growth incubated for 18 hrs by agar dilution method

| Compound | MIC (Pseudomonas aeruginosa [1]) | MIC (Pseudomonas aeruginosa [13]) | MIC (Escherichia coli [20]) | MIC (Escherichia coli [21]) | MIC (Klebsiella pneumoniae [22]) | MIC (Escherichia coli [23]) | MIC (Klebsiella pneumoniae [25]) | MIC (Pseudomonas aeruginosa [26]) | MIC (Klebsiella pneumoniae [27]) | MIC (Klebsiella pneumoniae [28]) | also measured |
| --- | --- | --- | --- | --- | --- | --- | --- | --- | --- | --- | --- |
| NCCC[C@H](NC(=O)c1ccc2ccccc2c1)C(=O)N[C@@H](CCc1ccccc1)C(=O)O | 8 µg/mL |  |  |  |  |  |  |  |  |  |  |
| C[C@@H](O)[C@H]1C(=O)N2C(C(=O)O)=C(SCCNC=N)C[C@H]12 [IMIPENEM ANHYDROUS] |  | 8 µg/mL (≈ 26.7 µM) |  |  |  |  |  |  |  |  | MIC (Pseudomonas aeruginosa [2]): 32 µg/mL (≈ 107 µM); MIC (Pseudomonas aeruginosa [3]): 4 µg/mL (≈ 13.4 µM); MIC (Pseudomonas aeruginosa [4]): 128 µg/mL (≈ 428 µM); MIC (Pseudomonas aeruginosa [5]): 1 µg/mL (≈ 3.34 µM); MIC (Pseudomonas aeruginosa [6]): 32 µg/mL (≈ 107 µM); MIC (Pseudomonas aeruginosa [7]): 64 µg/mL (≈ 214 µM); MIC (Pseudomonas aeruginosa [8]): 32 µg/mL (≈ 107 µM); MIC (Pseudomonas aeruginosa [9]): 16 µg/mL (≈ 53.4 µM); MIC (Pseudomonas aeruginosa [10]): 16 µg/mL (≈ 53.4 µM); MIC (Pseudomonas aeruginosa [11]): 32 µg/mL (≈ 107 µM); MIC (Pseudomonas aeruginosa [12]): 32 µg/mL (≈ 107 µM); MIC (Pseudomonas aeruginosa [14]): 8 µg/mL (≈ 26.7 µM); MIC (Pseudomonas aeruginosa [15]): 16 µg/mL (≈ 53.4 µM); MIC (Pseudomonas aeruginosa [16]): 64 µg/mL (≈ 214 µM); MIC (Pseudomonas aeruginosa [17]): 0.5 µg/mL (≈ 1.67 µM); MIC (Pseudomonas aeruginosa [18]): 1 µg/mL (≈ 3.34 µM); MIC (Pseudomonas aeruginosa [19]): 16 µg/mL (≈ 53.4 µM) |
| NCCC[C@H](NC(=O)CCc1ccc([N+](=O)[O-])cc1)C(=O)Nc1ccc2ccccc2c1 | 8 µg/mL |  |  |  |  |  |  |  |  |  |  |
| COC(=O)[C@H](Cc1ccccc1)NC(=O)[C@H](CCCN)NC(=O)c1ccc2ccccc2c1 | 8 µg/mL |  |  |  |  |  |  |  |  |  |  |
| NCCC[C@H](NCc1ccc2ccccc2c1)C(=O)N[C@@H](CCc1ccccc1)C(=O)O | 8 µg/mL |  |  |  |  |  |  |  |  |  |  |
| NCCC[C@H](NC(=O)CCc1ccccc1)C(=O)Nc1ccc2ccccc2c1 | 2 µg/mL |  |  |  |  |  |  |  |  |  |  |
| C[C@H]1[C@H](NC(=O)/C(=N\OCC(=O)N2CCC(C(=O)O)CC2)c2csc(N)n2)C(=O)N1S(=O)(=O)O |  | > 64 µg/mL | 16 µg/mL (≈ 30.9 µM) | 4 µg/mL (≈ 7.71 µM) | > 64 µg/mL | > 64 µg/mL | > 64 µg/mL | > 64 µg/mL | > 64 µg/mL | > 64 µg/mL | MIC (Escherichia coli [24]): 16 µg/mL (≈ 30.9 µM) |
| C[C@@H](O/N=C(\C(=O)N[C@@H]1C(=O)N(OS(=O)(=O)O)C1(C)C)c1csc(N)n1)C(=O)O |  | 64 µg/mL (≈ 142 µM) | 0.5 µg/mL (≈ 1.11 µM) | 1 µg/mL (≈ 2.22 µM) | 0.5 µg/mL (≈ 1.11 µM) | 1 µg/mL (≈ 2.22 µM) | 1 µg/mL (≈ 2.22 µM) | 64 µg/mL (≈ 142 µM) | 4 µg/mL (≈ 8.86 µM) | 8 µg/mL (≈ 17.7 µM) |  |
| NCCC[C@H](NC(=O)CCCc1ccccc1)C(=O)Nc1ccc2ccccc2c1 | 8 µg/mL |  |  |  |  |  |  |  |  |  |  |
| POLYMYXIN B |  | 8 µg/mL | 0.25 µg/mL | 1 µg/mL | 1 µg/mL | 8 µg/mL | 16 µg/mL | 4 µg/mL | 2 µg/mL | 1 µg/mL | MIC (Escherichia coli [24]): 1 µg/mL |
| NCCC[C@H](NC(=O)C[C@H](N)c1ccccc1)C(=O)Nc1ccc2ccccc2c1 | 8 µg/mL |  |  |  |  |  |  |  |  |  |  |
| C[C@H]1[C@H](NC(=O)/C(=N\OCCN)c2nsc(N)n2)C(=O)N1S(=O)(=O)O |  | > 64 µg/mL | 16 µg/mL (≈ 40.7 µM) | 32 µg/mL (≈ 81.3 µM) | > 64 µg/mL | > 64 µg/mL | 64 µg/mL (≈ 163 µM) | > 64 µg/mL | 32 µg/mL (≈ 81.3 µM) | 32 µg/mL (≈ 81.3 µM) | MIC (Escherichia coli [24]): 16 µg/mL (≈ 40.7 µM) |
| CCOC(=O)[C@H](CCc1ccccc1)NC(=O)[C@H](CCCN)NC(=O)c1ccc2ccccc2c1 | 8 µg/mL |  |  |  |  |  |  |  |  |  |  |
| CC(C)[C@@H](O/N=C(\C(=O)N[C@@H]1C(=O)N(OS(=O)(=O)O)C1(C)C)c1csc(N)n1)C(=O)O |  | > 64 µg/mL | 8 µg/mL (≈ 16.7 µM) | 16 µg/mL (≈ 33.4 µM) | 16 µg/mL (≈ 33.4 µM) | 32 µg/mL (≈ 66.7 µM) | 16 µg/mL (≈ 33.4 µM) | > 64 µg/mL | 64 µg/mL (≈ 133 µM) | > 64 µg/mL | MIC (Escherichia coli [24]): 32 µg/mL (≈ 66.7 µM) |
| NCCC[C@H](NC(=O)c1ccc2ccccc2c1)C(=O)N[C@@H](Cc1ccccc1)C(N)=O | 8 µg/mL |  |  |  |  |  |  |  |  |  |  |
| NCCC[C@H](NC(=O)CCc1cc(F)cc(F)c1)C(=O)Nc1ccc2ccccc2c1 | 2 µg/mL |  |  |  |  |  |  |  |  |  |  |
